Assay results taken from US20240139135A1, “[…] TREATMENT OF OPIOID USE DISORDER” (THE TRUSTEES OF INDIANA UNIVERSITY, priority 2019, published 2024).
Entries after “also recorded” stand apart in the source; their conditions may differ.

Legend:
[1] = test system: patients with opioid use disorder (DSM-5 moderate to severe) using opioids for at least three months; experiment: Medical chart review of a fifteen-patient outpatient neurology cohort whose opioids were replaced with low-dose Lyrica (pregabalin); assay type: in vivo, human
Method: Summary of Experimental Results: Over the span of several years, the present inventor, who is a practicing neurologist, tested various different drugs at varying doses in an attempt to assist patients in their outpatient general neurological practice with cessation of opioid use. Through extensive experimentation, the physician discovered that 25 mg of Lyrica (pregabalin) T.I.D. successfully replaced opioids in a few of their patients, they subsequently expanded their research to other patients.
The charts for the fifteen (15) patients of this cohort were evaluated to ascertain the date that pregabalin was initiated, and the starting dose; the pregabalin dose as of the last available medical record; concomitant pain/CNS medications and concomitant non-pain/CNS medications; records of opioid use, type of opioid and dose (when available); and the temporal relationship between starting pregabalin and no longer requiring opioids. The medications in patient charts were compared with the accompanying medication list for each patient. As these were medical charts, the review was conducted to the extent that information was available.
Diagnosis of opioid use disorder: As a part of the medical chart review, the investigating physician assessed the fifteen (15) patients against the DSM-5 diagnostic criteria for OUD, defined “ . . . as a problematic pattern of opioid use leading to clinically significant impairment or distress, as manifested by at least two (2) pre-defined symptoms.” These criteria include eleven symptoms or behaviors occurring within a 12-month period. A diagnosis of mild OUD requires the presence of 2-3 symptoms, moderate 4-5 symptoms, and severe 6 or more symptoms. Of the fifteen (15) patients, seven (7) had scores in the moderate range and eight (8) had scores in the severe range.

neuropathic pain = details: doses of up to 150 mg a day; cited from earlier work

CC(C)C[C@H](CN)CC(=O)O [pregabalin, (S)-(+)-3-aminomethyl-5-methyl-hexanoic acid]
patients for whom opioids were successfully replaced ([1]; 25 mg Lyrica (pregabalin) T.I.D., patients had been using opioids for at least three months, cohort of 15): 15 patients | cravings for opioids ([1]; each of the fifteen patients, low-dose pregabalin): complete cessation of cravings for opioids | side effects or withdrawal symptoms ([1]; fifteen patients, opioids replaced with low-dose pregabalin): no reported side effects or withdrawal symptoms; also recorded: none of the fifteen (15) patients experienced side effects or withdrawal symptoms | patients who decreased their opioids temporally related to (after) starting pregabalin ([1]; of fifteen patients): 2 patients | patients who stopped or decreased their opioids temporally related to (after) starting pregabalin ([1]; of fifteen patients, chart review): ≥ 7 patients | patients who stopped their opioids temporally related to (after) starting pregabalin ([1]; of fifteen patients, one continued tramadol 50 mg Q.I.D. prn): 5 patients | patients who elected to return to opioids for other reasons ([1]; of the fifteen-patient cohort, also effectively cured of cravings): 2 patients | remaining patients, none of whom returned to opioids within the observation period ([1]; of the fifteen-patient cohort, opioids replaced with low doses of Lyrica (pregabalin)): 13 patients | patients started on pregabalin who stopped or decreased their use of opioids (total) ([1]; of the patient charts reviewed (fifteen)): ≥ 11 patients | patients who stopped their opioids while on pregabalin, relative timing not definitively established ([1]; of the remaining eight patients): 4 patients | efficacy for the indicated treatment of neuropathic pain (neuropathic pain): consistently ineffective
